Test results reported in ChEMBL document CHEMBL5291721, “A preclinical secondary pharmacology resource illuminates target-adverse drug reaction associations of marketed drugs” (Nat Commun, 2023).

Experiments:
[1] = molecular target: T1, Muscarinic acetylcholine receptor M5 (Homo sapiens, UniProt P08912)
T1 sequence (P08912 whole entry): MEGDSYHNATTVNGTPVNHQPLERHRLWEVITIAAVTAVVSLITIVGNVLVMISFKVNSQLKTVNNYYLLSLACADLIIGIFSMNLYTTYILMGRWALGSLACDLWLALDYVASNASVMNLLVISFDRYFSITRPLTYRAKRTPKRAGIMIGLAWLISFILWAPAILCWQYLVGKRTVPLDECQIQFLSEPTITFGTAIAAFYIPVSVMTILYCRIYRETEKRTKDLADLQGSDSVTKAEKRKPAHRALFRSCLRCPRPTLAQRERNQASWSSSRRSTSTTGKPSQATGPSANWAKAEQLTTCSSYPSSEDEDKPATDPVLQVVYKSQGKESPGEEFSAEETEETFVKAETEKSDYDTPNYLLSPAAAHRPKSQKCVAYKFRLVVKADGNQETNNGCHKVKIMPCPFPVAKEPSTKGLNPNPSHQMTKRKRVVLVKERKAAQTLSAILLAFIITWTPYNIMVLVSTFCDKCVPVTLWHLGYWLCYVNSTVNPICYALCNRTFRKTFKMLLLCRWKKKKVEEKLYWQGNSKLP

Histamine H1 receptor = Histamine H1 receptor (Homo sapiens, UniProt P35367); format: functional, cell-based
Chain of Histamine H1 receptor (P35367 whole entry): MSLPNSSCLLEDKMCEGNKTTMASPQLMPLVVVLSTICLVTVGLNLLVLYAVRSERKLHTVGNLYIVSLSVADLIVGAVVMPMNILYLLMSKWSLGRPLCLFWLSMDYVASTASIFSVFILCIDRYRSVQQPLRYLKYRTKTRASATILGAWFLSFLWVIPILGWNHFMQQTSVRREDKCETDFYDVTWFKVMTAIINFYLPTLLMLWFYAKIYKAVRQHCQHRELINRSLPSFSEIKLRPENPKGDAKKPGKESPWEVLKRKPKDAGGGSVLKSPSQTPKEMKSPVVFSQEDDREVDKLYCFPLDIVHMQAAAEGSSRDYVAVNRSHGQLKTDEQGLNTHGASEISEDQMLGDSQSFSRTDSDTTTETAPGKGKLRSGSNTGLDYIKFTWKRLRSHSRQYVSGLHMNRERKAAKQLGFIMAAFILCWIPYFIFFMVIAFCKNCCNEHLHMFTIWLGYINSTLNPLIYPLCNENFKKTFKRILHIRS

[2] = molecular target: T2, Prostaglandin G/H synthase 1 (Rattus norvegicus, UniProt Q63921); format: functional
T2 sequence (Q63921 whole entry): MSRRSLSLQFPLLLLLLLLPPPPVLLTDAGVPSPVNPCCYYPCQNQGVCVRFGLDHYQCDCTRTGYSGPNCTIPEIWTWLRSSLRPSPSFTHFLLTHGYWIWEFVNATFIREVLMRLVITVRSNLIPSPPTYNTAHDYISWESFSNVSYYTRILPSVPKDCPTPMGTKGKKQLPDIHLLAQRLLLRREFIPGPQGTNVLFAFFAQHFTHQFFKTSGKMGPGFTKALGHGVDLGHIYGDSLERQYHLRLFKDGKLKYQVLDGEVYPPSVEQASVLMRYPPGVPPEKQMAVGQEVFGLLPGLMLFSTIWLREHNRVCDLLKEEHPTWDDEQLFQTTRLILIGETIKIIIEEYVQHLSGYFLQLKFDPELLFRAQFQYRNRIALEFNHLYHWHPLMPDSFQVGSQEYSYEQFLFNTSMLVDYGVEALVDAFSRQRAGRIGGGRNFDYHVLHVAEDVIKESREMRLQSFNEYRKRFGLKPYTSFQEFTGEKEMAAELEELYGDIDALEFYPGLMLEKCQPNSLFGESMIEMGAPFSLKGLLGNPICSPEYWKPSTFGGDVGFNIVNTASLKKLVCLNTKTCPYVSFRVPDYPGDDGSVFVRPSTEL

[3] = molecular target: Voltage-dependent L-type calcium channel subunit alpha-1C (Homo sapiens, UniProt Q13936); format: functional, cell-based
Chain of Voltage-dependent L-type calcium channel subunit alpha-1C (Q13936 whole entry): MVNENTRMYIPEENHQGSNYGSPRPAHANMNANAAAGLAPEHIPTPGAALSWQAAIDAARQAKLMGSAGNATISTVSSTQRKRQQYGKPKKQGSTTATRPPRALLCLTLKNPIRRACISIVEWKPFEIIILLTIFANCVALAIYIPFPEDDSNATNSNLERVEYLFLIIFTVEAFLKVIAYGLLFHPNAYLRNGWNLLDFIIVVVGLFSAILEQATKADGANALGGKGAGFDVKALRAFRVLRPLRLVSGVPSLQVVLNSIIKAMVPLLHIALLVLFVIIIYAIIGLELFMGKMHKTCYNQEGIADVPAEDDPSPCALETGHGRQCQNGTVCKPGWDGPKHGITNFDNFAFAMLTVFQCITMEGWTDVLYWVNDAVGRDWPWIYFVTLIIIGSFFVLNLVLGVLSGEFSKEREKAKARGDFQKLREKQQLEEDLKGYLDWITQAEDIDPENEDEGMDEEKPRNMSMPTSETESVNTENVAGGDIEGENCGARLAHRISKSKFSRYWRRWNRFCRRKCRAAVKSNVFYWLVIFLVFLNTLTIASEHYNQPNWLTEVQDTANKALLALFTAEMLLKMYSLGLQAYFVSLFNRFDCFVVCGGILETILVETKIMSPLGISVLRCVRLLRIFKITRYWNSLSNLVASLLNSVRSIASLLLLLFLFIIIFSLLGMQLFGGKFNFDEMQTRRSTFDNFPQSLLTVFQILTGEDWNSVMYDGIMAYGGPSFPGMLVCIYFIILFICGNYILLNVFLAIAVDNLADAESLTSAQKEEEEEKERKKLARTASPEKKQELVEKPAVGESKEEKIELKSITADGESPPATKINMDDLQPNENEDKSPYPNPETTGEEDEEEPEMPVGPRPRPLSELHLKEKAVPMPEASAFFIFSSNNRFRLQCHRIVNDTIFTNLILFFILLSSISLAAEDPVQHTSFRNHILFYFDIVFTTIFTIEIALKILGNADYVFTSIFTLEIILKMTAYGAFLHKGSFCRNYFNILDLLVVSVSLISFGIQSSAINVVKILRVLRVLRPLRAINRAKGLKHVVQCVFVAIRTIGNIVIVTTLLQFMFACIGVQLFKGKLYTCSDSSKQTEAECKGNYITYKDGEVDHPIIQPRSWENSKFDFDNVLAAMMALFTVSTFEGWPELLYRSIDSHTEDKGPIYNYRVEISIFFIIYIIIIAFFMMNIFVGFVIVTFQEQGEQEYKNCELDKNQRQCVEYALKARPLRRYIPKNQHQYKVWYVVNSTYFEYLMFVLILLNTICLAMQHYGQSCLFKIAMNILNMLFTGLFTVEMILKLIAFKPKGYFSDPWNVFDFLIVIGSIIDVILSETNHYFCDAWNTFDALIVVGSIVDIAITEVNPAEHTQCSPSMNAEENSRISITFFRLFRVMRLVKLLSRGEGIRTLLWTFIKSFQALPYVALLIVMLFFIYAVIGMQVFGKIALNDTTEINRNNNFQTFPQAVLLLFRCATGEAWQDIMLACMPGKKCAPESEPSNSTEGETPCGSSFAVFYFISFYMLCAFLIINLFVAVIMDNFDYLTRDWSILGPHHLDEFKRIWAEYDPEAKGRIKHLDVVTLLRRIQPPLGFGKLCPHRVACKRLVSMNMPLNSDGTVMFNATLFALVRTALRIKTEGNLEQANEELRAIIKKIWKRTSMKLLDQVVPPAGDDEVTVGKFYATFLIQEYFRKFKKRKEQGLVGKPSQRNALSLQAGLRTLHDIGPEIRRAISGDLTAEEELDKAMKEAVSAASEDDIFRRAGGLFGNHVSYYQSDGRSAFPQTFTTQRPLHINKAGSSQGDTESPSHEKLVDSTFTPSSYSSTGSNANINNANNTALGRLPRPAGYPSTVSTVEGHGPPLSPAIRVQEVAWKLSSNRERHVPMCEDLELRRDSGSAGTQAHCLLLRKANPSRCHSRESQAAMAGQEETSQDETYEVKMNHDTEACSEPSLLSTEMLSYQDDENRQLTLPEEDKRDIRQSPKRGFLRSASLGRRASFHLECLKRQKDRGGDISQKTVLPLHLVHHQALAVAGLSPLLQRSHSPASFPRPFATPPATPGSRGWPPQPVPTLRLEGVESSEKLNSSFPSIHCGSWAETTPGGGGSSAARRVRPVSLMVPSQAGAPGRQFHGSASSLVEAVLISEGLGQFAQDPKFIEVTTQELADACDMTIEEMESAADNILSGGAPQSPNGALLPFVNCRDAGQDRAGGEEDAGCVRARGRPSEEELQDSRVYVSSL

[4] = molecular target: T3, Alpha-2A adrenergic receptor (Homo sapiens, UniProt P08913)
T3 sequence (P08913 whole entry): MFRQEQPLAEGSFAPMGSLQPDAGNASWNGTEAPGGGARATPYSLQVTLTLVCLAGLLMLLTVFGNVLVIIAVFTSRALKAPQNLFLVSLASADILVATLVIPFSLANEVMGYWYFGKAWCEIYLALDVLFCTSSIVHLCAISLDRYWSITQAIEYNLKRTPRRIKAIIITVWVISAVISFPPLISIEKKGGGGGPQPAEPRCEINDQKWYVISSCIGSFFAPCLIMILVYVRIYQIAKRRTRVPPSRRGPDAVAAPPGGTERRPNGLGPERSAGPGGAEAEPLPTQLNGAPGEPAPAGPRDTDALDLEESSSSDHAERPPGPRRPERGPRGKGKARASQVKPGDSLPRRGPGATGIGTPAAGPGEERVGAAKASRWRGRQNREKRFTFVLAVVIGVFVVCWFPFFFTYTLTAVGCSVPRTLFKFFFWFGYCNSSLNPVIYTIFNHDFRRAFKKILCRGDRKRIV

[5] = molecular target: 5-hydroxytryptamine receptor 2B (Homo sapiens, UniProt P41595)
Chain of 5-hydroxytryptamine receptor 2B (P41595 whole entry): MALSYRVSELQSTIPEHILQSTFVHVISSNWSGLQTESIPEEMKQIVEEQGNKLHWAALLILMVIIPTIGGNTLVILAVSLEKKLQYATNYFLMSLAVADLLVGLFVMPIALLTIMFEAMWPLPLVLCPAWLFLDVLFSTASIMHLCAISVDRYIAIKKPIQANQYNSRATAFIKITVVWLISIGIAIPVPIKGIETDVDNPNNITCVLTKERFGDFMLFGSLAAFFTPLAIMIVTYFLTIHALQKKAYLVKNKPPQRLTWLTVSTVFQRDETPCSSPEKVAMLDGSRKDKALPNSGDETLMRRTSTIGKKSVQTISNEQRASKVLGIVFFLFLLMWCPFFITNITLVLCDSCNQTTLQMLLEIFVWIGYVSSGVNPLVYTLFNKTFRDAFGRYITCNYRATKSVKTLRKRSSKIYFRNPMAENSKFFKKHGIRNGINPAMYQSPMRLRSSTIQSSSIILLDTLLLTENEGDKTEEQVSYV

[6] = molecular target: T4, Peroxisome proliferator-activated receptor alpha (Homo sapiens, UniProt Q07869); format: functional
T4 sequence (Q07869 whole entry): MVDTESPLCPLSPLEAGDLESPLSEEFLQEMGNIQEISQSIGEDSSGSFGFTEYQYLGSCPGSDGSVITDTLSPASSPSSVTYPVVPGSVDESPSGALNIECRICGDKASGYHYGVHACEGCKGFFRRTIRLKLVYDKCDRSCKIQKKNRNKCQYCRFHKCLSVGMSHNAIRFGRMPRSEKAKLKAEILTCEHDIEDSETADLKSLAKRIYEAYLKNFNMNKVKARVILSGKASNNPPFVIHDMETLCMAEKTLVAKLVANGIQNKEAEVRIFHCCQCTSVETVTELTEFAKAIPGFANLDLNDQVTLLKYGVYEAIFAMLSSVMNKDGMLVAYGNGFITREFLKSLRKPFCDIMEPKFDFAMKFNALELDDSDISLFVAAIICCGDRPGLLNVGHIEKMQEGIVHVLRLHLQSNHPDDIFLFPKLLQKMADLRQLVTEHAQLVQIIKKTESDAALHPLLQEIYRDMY

[7] = molecular target: T5, Nuclear receptor subfamily 1 group I member 3 (Homo sapiens, UniProt Q14994); format: functional
T5 sequence (Q14994 whole entry): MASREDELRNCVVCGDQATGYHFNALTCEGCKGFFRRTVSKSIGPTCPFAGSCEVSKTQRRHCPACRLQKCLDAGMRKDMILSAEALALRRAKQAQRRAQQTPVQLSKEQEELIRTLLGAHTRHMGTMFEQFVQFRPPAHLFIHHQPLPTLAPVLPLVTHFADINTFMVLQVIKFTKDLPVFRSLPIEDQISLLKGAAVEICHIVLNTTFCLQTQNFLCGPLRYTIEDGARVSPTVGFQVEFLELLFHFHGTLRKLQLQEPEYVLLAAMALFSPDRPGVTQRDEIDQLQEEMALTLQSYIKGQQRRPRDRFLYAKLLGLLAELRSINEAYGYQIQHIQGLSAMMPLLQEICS

[8] = molecular target: T4, Peroxisome proliferator-activated receptor alpha; format: functional; remark: listed apart in the source
Note: assay procedure not described here.

CCOC(=O)[C@H](CCc1ccccc1)N[C@@H](C)C(=O)N1Cc2ccccc2C[C@H]1C(=O)O
AC50 [1]: > 10 µM

CN(C)CCc1c[nH]c2ccc(CS(=O)(=O)N3CCCC3)cc12 [ALMOTRIPTAN]
AC50 (Histamine H1 receptor): > 30 µM

CN(C)CCC=C1c2ccccc2CCc2ccccc21 [AMITRIPTYLINE]
AC50 [2]: > 30 µM
AC50 [3]: 32 µM

CN1CC2c3ccccc3Oc3ccc(Cl)cc3C2C1 (centres undefined) [ASENAPINE]
AC50 [4]: 0.0137 µM

CC(=O)Oc1ccccc1C(=O)O [ASPIRIN]
AC50 [4]: > 30 µM

Cn1cnc2c(F)c(Nc3ccc(Br)cc3F)c(C(=O)NOCCO)cc21 [BINIMETINIB]
AC50 [3]: > 50 µM

CCN(CC)CCn1c(=O)c(Cc2ccc(OC)cc2)nc2ccccc21 [CAROVERINE]
AC50 [2]: 15.9 µM

CN(C)CCCC1(c2ccc(F)cc2)OCc2cc(C#N)ccc21 (centres undefined) [CITALOPRAM]
AC50 [5]: 0.3 µM

CC(C)/N=c1\cc2n(-c3ccc(Cl)cc3)c3ccccc3nc-2cc1Nc1ccc(Cl)cc1 [CLOFAZIMINE]
AC50 [6]: > 30 µM
AC50 [7]: > 30 µM
AC50 [8]: > 30 µM

NCC1(CC(=O)O)CCCCC1 [GABAPENTIN]
AC50 [4]: > 30 µM
AC50 [1]: > 10 µM

OCCOCCN1CCN(C(c2ccccc2)c2ccc(Cl)cc2)CC1 (centres undefined) [HYDROXYZINE]
AC50 (Histamine H1 receptor): > 30 µM

N#Cc1ccnc(N2C(=O)CC[C@H]2C(=O)N(c2cncc(F)c2)[C@H](C(=O)NC2CC(F)(F)C2)c2ccccc2Cl)c1 [IVOSIDENIB]
AC50 [3]: > 50 µM

Nc1nnc(-c2cccc(Cl)c2Cl)c(N)n1 [LAMOTRIGINE]
AC50 [3]: > 50 µM

CC(=O)NC[C@H]1CN(c2ccc(N3CCOCC3)c(F)c2)C(=O)O1 [LINEZOLID]
AC50 [3]: > 50 µM

C#CCN(C)Cc1ccccc1 [PARGYLINE]
AC50 (Histamine H1 receptor): > 30 µM

CC(=O)SCC(Cc1ccccc1)C(=O)NCC(=O)OCc1ccccc1 (centres undefined) [RACECADOTRIL]
AC50 [6]: 29 µM
AC50 [8]: > 30 µM

CCOc1ccccc1OCCN[C@H](C)Cc1ccc(OC)c(S(N)(=O)=O)c1 [TAMSULOSIN]
AC50 [4]: 0.79 µM

Cc1ccc(C(C)C)c(O)c1 [THYMOL]
AC50 [5]: 9.1 µM

Cc1c(C)c2c(c(C)c1O)CCC(C)(COc1ccc(CC3SC(=O)NC3=O)cc1)O2 (centres undefined) [TROGLITAZONE]
AC50 [7]: 3.4 µM
